Columns and labels:
[1] = molecular target: T1, 5-hydroxytryptamine receptor 2C (Homo sapiens, UniProt P28335); assay: DRUGMATRIX: Serotonin (5-Hydroxytryptamine) 5-HT2C radioligand binding (ligand: [3H] Mesulergine); type: cell membranes, CHO-K1, Membrane; conditions: Not Active = under 50% inhibition at 10 µM; for Ki: read-out: Ki
T1 sequence (P28335 whole entry): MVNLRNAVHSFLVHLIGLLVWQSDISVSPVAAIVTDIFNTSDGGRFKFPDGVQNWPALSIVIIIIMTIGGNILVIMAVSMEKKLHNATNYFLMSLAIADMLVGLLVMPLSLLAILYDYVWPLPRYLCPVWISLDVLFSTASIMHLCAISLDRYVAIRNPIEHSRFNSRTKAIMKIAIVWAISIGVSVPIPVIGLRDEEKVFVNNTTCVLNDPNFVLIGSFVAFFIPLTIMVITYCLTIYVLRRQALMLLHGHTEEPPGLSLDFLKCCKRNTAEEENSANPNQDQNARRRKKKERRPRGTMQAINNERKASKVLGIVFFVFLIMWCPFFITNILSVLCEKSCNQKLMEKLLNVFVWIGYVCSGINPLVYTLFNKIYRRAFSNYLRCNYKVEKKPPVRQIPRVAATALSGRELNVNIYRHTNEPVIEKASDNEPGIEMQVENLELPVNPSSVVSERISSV

[2] = molecular target: Sigma non-opioid intracellular receptor 1 (Homo sapiens, UniProt Q99720); assay: DRUGMATRIX: Sigma1 radioligand binding (ligand: [3H] Haloperidol); type: cell membranes, Jurkat, Membrane; conditions: Not Active = under 50% inhibition at 10 µM; for Ki: read-out: Ki
[3] = molecular target: T2, Polyunsaturated fatty acid lipoxygenase ALOX15 (Oryctolagus cuniculus, UniProt P12530); assay: biochemical; type: tissue-based, Reticulocytes; conditions: reticulocytes;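 note: inhibition of 15-lipoxygenase enzyme activity measured with linoleic acid as the substrate; in other assays of this panel Not Active means under 50% inhibition at 10 µM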
T2 sequence (P12530 whole entry): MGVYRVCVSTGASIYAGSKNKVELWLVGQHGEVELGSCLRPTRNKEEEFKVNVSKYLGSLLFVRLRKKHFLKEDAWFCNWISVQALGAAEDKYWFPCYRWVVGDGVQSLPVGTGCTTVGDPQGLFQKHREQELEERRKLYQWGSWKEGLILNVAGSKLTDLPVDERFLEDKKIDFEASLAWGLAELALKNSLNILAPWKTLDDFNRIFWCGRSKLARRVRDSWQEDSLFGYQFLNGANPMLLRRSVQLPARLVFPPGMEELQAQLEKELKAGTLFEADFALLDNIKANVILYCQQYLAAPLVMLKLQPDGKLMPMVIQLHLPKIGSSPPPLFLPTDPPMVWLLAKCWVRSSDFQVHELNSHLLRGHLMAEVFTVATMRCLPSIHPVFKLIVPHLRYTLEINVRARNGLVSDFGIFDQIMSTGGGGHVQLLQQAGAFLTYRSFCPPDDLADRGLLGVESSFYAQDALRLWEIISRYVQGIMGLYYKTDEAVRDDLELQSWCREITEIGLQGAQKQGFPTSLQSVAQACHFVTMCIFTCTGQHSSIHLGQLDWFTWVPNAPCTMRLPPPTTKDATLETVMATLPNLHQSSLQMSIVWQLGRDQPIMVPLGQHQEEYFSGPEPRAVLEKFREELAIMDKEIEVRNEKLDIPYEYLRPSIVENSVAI

Melanocortin receptor 5 = Melanocortin receptor 5 (Homo sapiens, UniProt P33032); type: cell membranes, HEK293, Membrane; note: in other assays of this panel Not Active means under 50% inhibition at 10 µM
[4] = molecular target: T3, Neuropeptide Y receptor type 1 (Homo sapiens, UniProt P25929); type: cell membranes, Membrane; conditions: sk-n-mc; note: in other assays of this panel Not Active means under 50% inhibition at 10 µM
T3 sequence (P25929 whole entry): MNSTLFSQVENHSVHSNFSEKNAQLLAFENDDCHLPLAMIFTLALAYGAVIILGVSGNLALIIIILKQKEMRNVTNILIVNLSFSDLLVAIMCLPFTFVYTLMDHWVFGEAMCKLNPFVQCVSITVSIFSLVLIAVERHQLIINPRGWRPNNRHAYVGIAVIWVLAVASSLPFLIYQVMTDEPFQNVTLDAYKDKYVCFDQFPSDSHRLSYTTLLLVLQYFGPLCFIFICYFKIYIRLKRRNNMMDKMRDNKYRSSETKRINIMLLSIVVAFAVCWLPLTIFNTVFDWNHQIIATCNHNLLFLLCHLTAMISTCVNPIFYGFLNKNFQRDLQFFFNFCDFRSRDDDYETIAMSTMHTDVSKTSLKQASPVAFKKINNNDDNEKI

[5] = molecular target: Mitogen-activated protein kinase 1 (Homo sapiens, UniProt P28482); assay: DRUGMATRIX: Protein Serine/Threonine Kinase, ERK2 enzyme inhibition (substrate: Myelin Basic Protein); parameters: species or system Escherichia coli; conditions: Not Active = under 50% inhibition at 10 µM
[6] = molecular target: T4, Cholecystokinin receptor type A (Homo sapiens, UniProt P32238); type: cell membranes, Membrane; conditions: 1321-n1; note: in other assays of this panel Not Active means under 50% inhibition at 10 µM
T4 sequence (P32238 whole entry): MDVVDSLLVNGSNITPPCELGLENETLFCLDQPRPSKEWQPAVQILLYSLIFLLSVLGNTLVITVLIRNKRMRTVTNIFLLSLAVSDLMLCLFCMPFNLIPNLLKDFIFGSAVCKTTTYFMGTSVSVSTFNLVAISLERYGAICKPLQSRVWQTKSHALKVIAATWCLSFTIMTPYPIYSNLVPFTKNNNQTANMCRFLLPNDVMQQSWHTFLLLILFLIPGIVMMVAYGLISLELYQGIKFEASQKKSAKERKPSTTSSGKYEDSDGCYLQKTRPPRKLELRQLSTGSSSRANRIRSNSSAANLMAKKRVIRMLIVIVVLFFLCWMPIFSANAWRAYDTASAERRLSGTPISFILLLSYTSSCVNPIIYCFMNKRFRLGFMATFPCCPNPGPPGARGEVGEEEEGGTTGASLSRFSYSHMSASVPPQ

Sequence of Melanocortin receptor 5 (P33032 whole entry): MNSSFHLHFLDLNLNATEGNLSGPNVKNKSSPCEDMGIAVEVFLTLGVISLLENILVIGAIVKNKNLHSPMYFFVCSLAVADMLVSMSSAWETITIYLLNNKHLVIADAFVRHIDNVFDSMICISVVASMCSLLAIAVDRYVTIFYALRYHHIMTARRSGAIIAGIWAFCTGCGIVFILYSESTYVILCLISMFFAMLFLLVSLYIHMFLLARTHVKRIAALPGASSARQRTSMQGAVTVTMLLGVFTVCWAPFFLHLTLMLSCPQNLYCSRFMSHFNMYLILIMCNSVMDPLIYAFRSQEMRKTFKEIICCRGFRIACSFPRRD
Sequence of Sigma non-opioid intracellular receptor 1 (Q99720 whole entry): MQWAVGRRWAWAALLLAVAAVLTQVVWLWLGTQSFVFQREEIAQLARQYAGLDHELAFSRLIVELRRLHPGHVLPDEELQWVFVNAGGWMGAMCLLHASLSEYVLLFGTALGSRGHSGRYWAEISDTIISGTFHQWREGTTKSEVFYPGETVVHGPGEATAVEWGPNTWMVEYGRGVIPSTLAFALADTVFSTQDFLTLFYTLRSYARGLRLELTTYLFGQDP
Sequence of Mitogen-activated protein kinase 1 (P28482 whole entry): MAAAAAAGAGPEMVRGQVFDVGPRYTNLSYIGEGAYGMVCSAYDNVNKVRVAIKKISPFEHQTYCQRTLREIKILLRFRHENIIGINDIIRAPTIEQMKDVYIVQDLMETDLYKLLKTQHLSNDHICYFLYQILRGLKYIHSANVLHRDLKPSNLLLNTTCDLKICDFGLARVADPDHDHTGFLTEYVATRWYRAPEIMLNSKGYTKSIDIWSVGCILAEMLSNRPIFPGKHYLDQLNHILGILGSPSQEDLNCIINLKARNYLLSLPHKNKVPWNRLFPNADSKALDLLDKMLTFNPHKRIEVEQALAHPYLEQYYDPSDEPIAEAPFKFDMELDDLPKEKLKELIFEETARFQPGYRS

Structure (SMILES) | IC50 ([1]; read-out: IC50) [µM] | Ki [1] [µM] | IC50 ([2]; jurkat) | IC50 [3] | IC50 (Melanocortin receptor 5; read-out: IC50) [µM] | Ki (Melanocortin receptor 5; read-out: Ki) [µM] | IC50 [4] | IC50 [5] | IC50 [6] | IC50 ([1]; cho-k1) | IC50 (Melanocortin receptor 5; hek293) | IC50 ([2]; read-out: IC50) [µM] | Ki [2] [µM]
Clc1ccc(COC(Cn2ccnc2)c2ccc(Cl)cc2Cl)c(Cl)c1 (stereo not drawn) [MICONAZOLE] | 5.31 | 2.78 | Not Active | Not Active | 22.6 | 21.2 | Not Active | Not Active | Not Active | – | – | – | –
CC1CCC(NC(=O)N(CCCl)N=O)CC1 (stereo not drawn) [SEMUSTINE] | – | – | Not Active | Not Active | – | – | Not Active | Not Active | Not Active | Not Active | Not Active | – | –
O=C1C[C@@H]2OCC=C3CN4CC[C@]56c7ccccc7N1[C@H]5[C@H]2[C@H]3C[C@H]46 [STRYCHNINE] | – | – | Not Active | Not Active | – | – | Not Active | Not Active | Not Active | Not Active | Not Active | – | –
C[S+]([O-])c1ccc(-c2nc(-c3ccncc3)c(-c3ccc(F)cc3)[nH]2)cc1 (stereo not drawn) [SB-203580] | – | – | Not Active | Not Active | – | – | Not Active | – | Not Active | Not Active | Not Active | – | –
CC(=N)S [THIOACETAMIDE] | – | – | Not Active | Not Active | – | – | Not Active | Not Active | Not Active | Not Active | Not Active | – | –
COC(=O)[C@H]1[C@H]2C[C@@H]3c4[nH]c5cc(OC)ccc5c4CCN3C[C@H]2C[C@@H](OC(=O)c2cc(OC)c(OC)c(OC)c2)[C@@H]1OC [RESERPINE] | – | – | Not Active | Not Active | – | – | Not Active | Not Active | Not Active | Not Active | Not Active | – | –
O=c1[nH]c(=O)n(C2CCCO2)cc1F (stereo not drawn) [TEGAFUR] | – | – | Not Active | Not Active | – | – | Not Active | Not Active | Not Active | Not Active | Not Active | – | –
C[N+](C)(C)CCOC(=O)CCC(=O)OCC[N+](C)(C)C.[Cl-].[Cl-] [SUCCINYLCHOLINE CHLORIDE] | – | – | Not Active | Not Active | – | – | Not Active | Not Active | Not Active | Not Active | Not Active | – | –
CCCCC(=O)N(Cc1ccc(-c2ccccc2-c2nnn[nH]2)cc1)[C@H](C(=O)O)C(C)C | – | – | Not Active | Not Active | – | – | Not Active | Not Active | Not Active | Not Active | Not Active | – | –
CN1CCN(C2=Nc3cc(Cl)ccc3Nc3ccccc32)CC1 [CLOZAPINE] | – | – | Not Active | Not Active | – | – | Not Active | Not Active | Not Active | – | Not Active | – | –
Oc1ccc2c3c1O[C@H]1[C@@H](O)CC[C@@]4(O)[C@@H](C2)N(CC2CCC2)CC[C@]314 [NALBUPHINE] | – | – | Not Active | Not Active | – | – | Not Active | Not Active | Not Active | Not Active | Not Active | – | –
CN(C)C(=O)C(CCN1CCC(O)(c2ccc(Cl)cc2)CC1)(c1ccccc1)c1ccccc1 [LOPERAMIDE] | – | – | – | Not Active | – | – | Not Active | Not Active | Not Active | Not Active | Not Active | 0.628 | 0.264
O=C(O)c1ccccc1O [SALICYLIC ACID] | – | – | Not Active | Not Active | – | – | Not Active | Not Active | Not Active | Not Active | Not Active | – | –
Nc1ccc(S(=O)(=O)NC(=O)c2ccccc2)cc1 [SULFABENZAMIDE] | – | – | Not Active | Not Active | – | – | Not Active | Not Active | Not Active | Not Active | Not Active | – | –
C[C@@](Cc1ccc(O)c(O)c1)(NN)C(=O)O.O [CARBIDOPA] | – | – | Not Active | Not Active | – | – | Not Active | Not Active | Not Active | Not Active | Not Active | – | –
CCCCCCCCNC(C)C(O)c1ccc(SC(C)C)cc1 (stereo not drawn) [SULOCTIDIL] | – | – | – | Not Active | – | – | Not Active | Not Active | Not Active | Not Active | Not Active | 0.117 | 0.0493
CN1CCN(CCCN2c3ccccc3Sc3ccc(C(F)(F)F)cc32)CC1 [TRIFLUOPERAZINE] | – | – | Not Active | Not Active | – | – | Not Active | Not Active | Not Active | Not Active | Not Active | – | –
C[C@]12C=CC(=O)C=C1CC[C@@H]1[C@@H]2C(=O)C[C@@]2(C)[C@H]1CC[C@]2(O)C(=O)CO [PREDNISONE] | – | – | Not Active | Not Active | – | – | Not Active | Not Active | Not Active | Not Active | Not Active | – | –
OCCOCCN1CCN(C2=Nc3ccccc3Sc3ccccc32)CC1 [QUETIAPINE] | – | – | – | Not Active | – | – | Not Active | Not Active | Not Active | – | Not Active | 2.29 | 0.964
CC(C)NC[C@H](O)COc1cccc2ccccc12 [LEVOPROPRANOLOL] | – | – | – | Not Active | – | – | Not Active | Not Active | Not Active | – | Not Active | 6.67 | 2.8
O=C(O)CCCCC1CCSS1 (stereo not drawn) [LIPOIC ACID, ALPHA] | – | – | Not Active | Not Active | – | – | Not Active | Not Active | Not Active | Not Active | Not Active | – | –
CC(C)NC[C@@H](O)COc1cccc2ccccc12 [DEXPROPRANOLOL] | – | – | – | Not Active | – | – | Not Active | Not Active | Not Active | Not Active | Not Active | 3.97 | 1.67
Cc1ccc(C(=O)c2ccc(CC(=O)O)n2C)cc1 [TOLMETIN] | – | – | Not Active | Not Active | – | – | Not Active | Not Active | Not Active | Not Active | Not Active | – | –
CC(=O)OCC(COC(C)=O)OC(C)=O [TRIACETIN] | – | – | Not Active | Not Active | – | – | Not Active | Not Active | Not Active | Not Active | Not Active | – | –
CN1[C@@H]2CC[C@H]1C[C@@H](OC(c1ccccc1)c1ccccc1)C2 [BENZTROPINE] | 0.061 | 0.032 | – | Not Active | – | – | Not Active | Not Active | Not Active | – | Not Active | – | –

— ChEMBL document CHEMBL1909046, “DrugMatrix in vitro pharmacology data”
